Test results as given in patent US20250002477A1, “BENZIMIDAZOLE COMPOUND OR SALT THEREOF, CANINE FILARIASIS CONTROL AGENT CONTAINING SAME, AND METHOD OF USE THEREOF” (NIHON NOHYAKU CO., LTD., priority 2021, published 2025).

Tested on: L-1 stage larvae of canine filariae (Dirofilaria immitis)
Assay: Impact evaluation test on larvae motility of canine filariae
Details: final concentration of 50 ppm, 3 days, corrected for DMSO solution alone

Clc1ccc(CCc2cn(-c3nc4ccccc4[nH]3)cn2)c(Cl)c1 [Compound 1-1, 2-(4-(2-(2,4-dichlorophenyl)ethyl)-1H-imidazol-1-yl)benzimidazole]
activity level (corrected motility impediment rate): A (the corrected motility impediment rate is 100%)
